Our source for the IC50 values is ChEMBL document CHEMBL1142798, “Lipophilic versus hydrogen-bonding effect in P3 on potency and selectivity of valine aspartyl ketones as caspase 3 inhibitors” (Bioorg Med Chem Lett, 2005).

pIC50: −log10 of the molar value.

For one assay, the target named is T1, Caspase-3 (Homo sapiens, UniProt P42574).
T1 sequence (P42574 whole entry): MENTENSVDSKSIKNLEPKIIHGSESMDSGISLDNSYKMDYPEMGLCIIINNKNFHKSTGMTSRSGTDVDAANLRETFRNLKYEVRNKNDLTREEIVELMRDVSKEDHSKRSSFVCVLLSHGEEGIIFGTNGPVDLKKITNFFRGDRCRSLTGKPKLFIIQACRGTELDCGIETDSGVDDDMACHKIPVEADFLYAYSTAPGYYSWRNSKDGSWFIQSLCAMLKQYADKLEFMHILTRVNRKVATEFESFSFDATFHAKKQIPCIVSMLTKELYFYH
Nature of the assay: Inhibitory activity against recombinant human Caspase-3.

The next assay addresses T2, Caspase-1 (Homo sapiens, UniProt P29466).
T2 sequence (P29466 whole entry): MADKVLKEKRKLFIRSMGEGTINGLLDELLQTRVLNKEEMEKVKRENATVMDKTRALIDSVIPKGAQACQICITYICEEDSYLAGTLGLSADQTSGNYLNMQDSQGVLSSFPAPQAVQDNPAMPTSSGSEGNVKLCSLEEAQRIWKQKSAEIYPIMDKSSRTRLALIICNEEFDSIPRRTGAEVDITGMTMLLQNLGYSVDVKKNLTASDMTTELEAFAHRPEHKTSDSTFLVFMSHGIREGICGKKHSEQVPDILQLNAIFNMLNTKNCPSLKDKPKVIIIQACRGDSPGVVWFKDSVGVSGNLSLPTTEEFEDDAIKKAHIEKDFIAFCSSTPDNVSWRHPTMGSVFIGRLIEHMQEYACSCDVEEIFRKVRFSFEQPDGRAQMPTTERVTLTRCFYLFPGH
Nature of the assay: Inhibitory activity against recombinant human Caspase-1.

The next assay concerns the target Caspase-8 (Homo sapiens, UniProt Q14790). Nature of the assay: Inhibitory activity against recombinant human Caspase-8.
In the next assay the target is T3, Caspase-7 (Homo sapiens, UniProt P55210).
T3 sequence (P55210 whole entry): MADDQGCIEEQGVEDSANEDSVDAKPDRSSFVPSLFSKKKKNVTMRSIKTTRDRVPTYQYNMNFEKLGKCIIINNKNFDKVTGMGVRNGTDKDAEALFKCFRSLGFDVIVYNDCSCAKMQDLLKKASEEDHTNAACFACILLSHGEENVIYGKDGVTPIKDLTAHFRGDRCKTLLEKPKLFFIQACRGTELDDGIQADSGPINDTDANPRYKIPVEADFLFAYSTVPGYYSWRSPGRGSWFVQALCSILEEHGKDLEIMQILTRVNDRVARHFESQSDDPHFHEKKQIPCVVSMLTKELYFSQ
In words: Inhibitory activity against recombinant human Caspase-7.

Caspase-8, sequence (Q14790 217-374 limits assumed): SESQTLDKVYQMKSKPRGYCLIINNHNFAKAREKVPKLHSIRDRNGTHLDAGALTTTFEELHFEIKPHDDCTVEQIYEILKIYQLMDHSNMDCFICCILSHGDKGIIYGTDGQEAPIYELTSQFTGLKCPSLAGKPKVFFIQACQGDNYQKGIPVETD
Caspase-8, sequence (Q14790 385-479 limits assumed): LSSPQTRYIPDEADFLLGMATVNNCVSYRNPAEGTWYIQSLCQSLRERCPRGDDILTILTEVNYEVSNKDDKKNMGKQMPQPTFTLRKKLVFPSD

The term pIC50 denotes −log10 of the IC50, conventionally taken in molar units. `COc1ccc(OC)c(CC(=O)N[C@H](C(=O)N[C@@H](CC(=O)O)C(=O)CSCc2ccccc2)C(C)C)c1`: the results for the pIC50 on Caspase-3, at Caspase-1 and on Caspase-8 were 7.28, 5.15 and 5.10, respectively.
`COc1ccc(C(C)=O)cc1CC(=O)N[C@H](C(=O)N[C@@H](CC(=O)O)C(=O)CSCc1ccccc1)C(C)C`: the pIC50 at Caspase-3 is 7.89; at Caspase-1, 5.21; at Caspase-8, 5.41; on Caspase-7, 6.26.
The like results for `CC(C)[C@H](NC(=O)C(C)(C)O)C(=O)N[C@@H](CC(=O)O)C(=O)CSCc1ccccc1` were, in that order, 6.33, 4.74, 4.86 and 4.96.
Regarding `CCC[C@@H](C(=O)N[C@H](C(=O)N[C@@H](CC(=O)O)C(=O)CSCc1ccccc1)C(C)C)c1cc(Br)ccc1OC`, the pIC50 on Caspase-1 was < 5.00.
`CC(C)[C@H](O)C(=O)N[C@H](C(=O)N[C@@H](CC(=O)O)C(=O)CSCc1ccccc1)C(C)C`: the pIC50 is 6.93 on Caspase-3, 5.52 at Caspase-1, 5.13 at Caspase-8 and 5.47 at Caspase-7.
Take `COc1ccc(Br)cc1[C@H](C(=O)N[C@H](C(=O)N[C@@H](CC(=O)O)C(=O)CSCc1ccccc1)C(C)C)C(C)C`: the pIC50 on Caspase-1 and at Caspase-7 was < 5.00 throughout.
Regarding `COc1ccc(Br)cc1[C@@H](C)C(=O)N[C@H](C(=O)N[C@@H](CC(=O)O)C(=O)CSCc1ccccc1)C(C)C`, the negative-log IC50 (pIC50) on Caspase-1 is < 5.00.
Consider `CC(C)[C@H](NC(=O)C(O)(C(F)(F)F)C(F)(F)F)C(=O)N[C@@H](CC(=O)O)C(=O)CSCc1ccccc1`, for which the pIC50 on Caspase-3 is 6.84; at Caspase-1 it was < 5.00; on Caspase-8 it was < 5.00; on Caspase-7, < 5.00.
`CC(C)[C@H](NC(=O)C(O)(c1ccccc1)c1ccccc1)C(=O)N[C@@H](CC(=O)O)C(=O)CSCc1ccccc1`: the pIC50 is 5.89 at Caspase-3, < 5.00 at Caspase-1, < 5.00 on Caspase-8 and < 5.00 at Caspase-7.
Turning to `CC(C)[C@H](NC(=O)C(C)(O)c1ccccc1)C(=O)N[C@@H](CC(=O)O)C(=O)CSCc1ccccc1` (stereo not given in full), the pIC50 was 7.07 at Caspase-3, 4.72 on Caspase-1, 5.10 at Caspase-8 and 5.56 on Caspase-7.
The like results for `CCC(O)(CC)C(=O)N[C@H](C(=O)N[C@@H](CC(=O)O)C(=O)CSCc1ccccc1)C(C)C` were, in that order, 5.69, < 5.00, 5.02 and < 5.00.
The like results for `CC(C)[C@H](NC(=O)[C@H](O)c1ccccc1)C(=O)N[C@@H](CC(=O)O)C(=O)CSCc1ccccc1` were, in that order, 7.39, 5.38, 5.94 and 5.98.
Take `CC(C)[C@H](NC(=O)Cc1ccccc1)C(=O)N[C@@H](CC(=O)O)C(=O)CSCc1ccccc1`: the pIC50 on Caspase-1 is 4.67; at Caspase-8, 4.66.
With `CC(C)[C@H](NC(=O)C1(O)CC1)C(=O)N[C@@H](CC(=O)O)C(=O)CSCc1ccccc1`, the pIC50 on Caspase-3 was 6.80; at Caspase-1 it was 5.02; at Caspase-8 it was 4.91; at Caspase-7, 5.29.
The like results for `CO[C@H](C(=O)N[C@H](C(=O)N[C@@H](CC(=O)O)C(=O)CSCc1ccccc1)C(C)C)c1ccccc1` were, in that order, 6.37, < 5.00, 5.04 and < 5.00.
In the case of `COc1ccc(-c2nc(C)no2)cc1CC(=O)N[C@H](C(=O)N[C@@H](CC(=O)O)C(=O)CSCc1ccccc1)C(C)C`, the pIC50 on Caspase-3 was 8.05; at Caspase-1 it was 5.26; at Caspase-8, 5.48; on Caspase-7 it was 7.01.
As for `CC(C)[C@H](NC(=O)[C@H](O)C(C)C)C(=O)N[C@@H](CC(=O)O)C(=O)CSCc1ccccc1`, the pIC50 is 6.48 on Caspase-3, < 5.00 at Caspase-1, 5.14 on Caspase-8 and < 5.00 on Caspase-7.
With `COc1ccc(Br)cc1[C@H](C(=O)N[C@H](C(=O)N[C@@H](CC(=O)O)C(=O)CSCc1ccccc1)C(C)C)C1CC1`, the negative logarithm of the IC50 (pIC50) on Caspase-3 was 6.49; on Caspase-1, < 5.00; on Caspase-8, < 5.00; at Caspase-7, < 5.00.
In the case of `CC(C)[C@H](NC(=O)C(O)c1ccccc1)C(=O)N[C@@H](CC(=O)O)C(=O)CSCc1ccccc1` (single isomer, unassigned), the negative-log IC50 (pIC50) at Caspase-3 is 7.00; at Caspase-1, 5.39; at Caspase-8, 5.44; on Caspase-7, 4.96.
The like results for `COc1ccc(Br)cc1CC(=O)N[C@H](C(=O)N[C@@H](CC(=O)O)C(=O)CSCc1ccccc1)C(C)C` (stereo in doubt; 6) were, in that order, 7.74, 5.52, 5.72 and 6.55.
On to `C#CC[C@@H](C(=O)N[C@H](C(=O)N[C@@H](CC(=O)O)C(=O)CSCc1ccccc1)C(C)C)c1cc(Br)ccc1OC` (stereo in doubt; 13), for which the pIC50 at Caspase-3 was 6.47; on Caspase-1, < 5.00; on Caspase-8, 5.35; on Caspase-7, 5.44.
The like results for `C#CC[C@@H](C(=O)N[C@H](C(=O)N[C@@H](CC(=O)O)C(=O)CSCc1ccccc1)C(C)C)c1cc(Br)ccc1OC` (stereo in doubt; 14) were, in that order, 7.77, 5.99, 7.04 and 6.86.
For the compound `COc1ccc(Br)cc1CC(=O)N[C@H](C(=O)N[C@@H](CC(=O)O)C(=O)CSCc1ccccc1)C(C)C` (stereo in doubt; 29), the pIC50 at Caspase-3 was 7.74; on Caspase-8 it was 5.72; on Caspase-7 it was 6.55.
